Source: patent US8722849B2, “Polypeptides” (Novo Nordisk A/S, priority 2011, dated 2014)
Like-named read-outs stand apart in the source and are kept apart here. Starred links: 1 amine or outer side, 2 acyl side, 3 side chain; linkers in the order of their positions; H or OH if unused. Positions of bridges follow the written chain, without caps; N, C: chain ends. Residues, ends and D or L forms follow the SMILES beside them. *: point of attachment. C20 diacid = O=C(O)CCCCCCCCCCCCCCCCCCC(=O)*; γGlu = O=C(O)[C@H](CCC(=O)[*:2])N[*:1]; AEEA = NCCOCCOCC(=O)O

Key:
[1] = biological target: T1, human calcitonin receptor (Homo sapiens, UniProt P30988); experiment: Assay (II)a functional CRE-luciferase assay, human calcitonin receptor; type: cell-based
T1 construct: expressed in transfected cells; host or cells: BHK570
T1 sequence (P30988 25-474): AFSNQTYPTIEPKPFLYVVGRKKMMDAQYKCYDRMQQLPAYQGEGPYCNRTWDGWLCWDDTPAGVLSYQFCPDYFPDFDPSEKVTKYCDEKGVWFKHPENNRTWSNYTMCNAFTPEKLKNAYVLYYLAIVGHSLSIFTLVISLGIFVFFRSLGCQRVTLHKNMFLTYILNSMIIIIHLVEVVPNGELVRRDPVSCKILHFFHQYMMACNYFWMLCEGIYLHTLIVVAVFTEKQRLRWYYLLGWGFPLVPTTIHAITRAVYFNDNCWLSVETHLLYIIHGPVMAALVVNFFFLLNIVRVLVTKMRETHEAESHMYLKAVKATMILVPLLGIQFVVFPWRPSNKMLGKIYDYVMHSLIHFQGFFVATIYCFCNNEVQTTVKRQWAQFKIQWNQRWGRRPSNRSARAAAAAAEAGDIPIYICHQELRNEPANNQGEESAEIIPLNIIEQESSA

[2] = Assay (IV) determination of solubility; type: physicochemical
Method in brief: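 Solubility is measured across pH 3.0–8.0 by mixing a ~500 nmol/ml aqueous polypeptide stock 1:1 with 100 mM glycylglycine or bistrispropane buffers. Samples stand 18 hours at room temperature, then are centrifuged and the soluble concentration is determined by HPLC.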

[3] = biological target: T2, human amylin receptor (amylin 3(a) receptor: human calcitonin receptor + RAMP-3) (Homo sapiens, UniProt O60896+P30988); experiment: Assay (II)a functional CRE-luciferase assay, human amylin receptor; type: cell-based
T2 construct: expressed in transfected cells; host or cells: BHK570
T2 sequence (P30988 25-474): T1 sequence (P30988 25-474)
T2 sequence (O60896 24-148 partner): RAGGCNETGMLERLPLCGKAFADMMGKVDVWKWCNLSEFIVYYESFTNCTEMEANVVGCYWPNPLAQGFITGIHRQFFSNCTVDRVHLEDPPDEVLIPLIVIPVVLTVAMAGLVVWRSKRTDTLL

[4] = Table 7, human calcitonin (CTa) receptor
[5] = Table 2, BHK amylin 3(a)-receptor/CRE-luc cells
[6] = Table 11, read-out: CTa receptor human EC50
[7] = pH 3, pH 3.0, read-out: Solubility pH 3.0
[8] = pH 4, pH 4.0, 18 hours at room temperature, Table 2, read-out: Solubility pH 4.0
[9] = pH 4, pH 4.0, read-out: Solubility pH 4.0
[10] = pH 5, pH 5.0, read-out: Solubility pH 5.0
[11] = pH 6, pH 6.0, read-out: Solubility pH 6.0
[12] = pH 6.5, pH 6.5, read-out: Solubility pH 6.5
[13] = pH 7, pH 7.0, 18 hours at room temperature, Table 3, read-out: Solubility pH 7.0
[14] = pH 7, pH 7.0, read-out: Solubility pH 7.0
[15] = pH 7.5, pH 7.5, read-out: Solubility pH 7.5
[16] = pH 8, pH 8.0, read-out: Solubility pH 8.0
[17] = Table 3, BHK amylin 3(a)-receptor/CRE-luc cells

SMILES | EC50 [1, 4] | EC50 [3, 5] | EC50 [1, 6] | solubility [2, 7] | solubility [2, 8] | solubility [2, 9] | solubility [2, 10] | solubility [2, 11] | solubility [2, 12] | solubility [2, 13] | solubility [2, 14] | solubility [2, 15] | solubility [2, 16] | EC50 [3, 17] | EC50 ([3]; Table 4) | EC50 ([3]; Table 6, human amylin receptor) | EC50 ([3]; Table 7, human amylin receptor) | EC50 ([3]; Table 11) | also measured
CC[C@H](C)[C@H](NC(=O)[C@@H]1CCCN1C(=O)CNC(=O)[C@H](Cc1ccccc1)NC(=O)[C@H](CC(N)=O)NC(=O)[C@H](CCC(N)=O)NC(=O)[C@H](CO)NC(=O)[C@H](CO)NC(=O)[C@H](Cc1c[nH]cn1)NC(=O)[C@H](CCCNC(=N)N)NC(=O)[C@H](CC(C)C)NC(=O)[C@H](Cc1ccccc1)NC(=O)[C@H](CCC(=O)O)NC(=O)[C@H](C)NC(=O)[C@H](CC(C)C)NC(=O)[C@H](CCCNC(=N)N)NC(=O)[C@H](CCC(N)=O)NC(=O)[C@@H](NC(=O)[C@H](C)NC(=O)[C@@H]1CSSC[C@H](NC(=O)[C@H](CCCNC(=N)N)NC(=O)[C@H](CCC(=O)O)NC(=O)[C@H](CCC(=O)O)NC(=O)CC[C@H](NC(=O)CCCCCCCCCCCCCCCCCCC(=O)O)C(=O)O)C(=O)N[C@@H](CC(N)=O)C(=O)N[C@@H]([C@@H](C)O)C(=O)N[C@@H](C)C(=O)N[C@@H]([C@@H](C)O)C(=O)N1)[C@@H](C)O)C(=O)N[C@@H](CC(C)C)C(=O)N1CCC[C@H]1C(=O)N1CCC[C@H]1C(=O)N[C@H](C(=O)N[C@@H](CC(N)=O)C(=O)N[C@H](C(=O)NCC(=O)N[C@@H](CO)C(=O)N[C@@H](CCC(N)=O)C(=O)N[C@H](C(=O)N1CCC[C@H]1C(N)=O)[C@@H](C)O)C(C)C)[C@@H](C)O [Example 158, N-alpha-[(S)-4-Carboxy-4-(19-carboxynonadecanoylamino)butyryl]-Glu-Glu-[Arg1,Glu14,Arg17,Gln21,Gln35,Pro37]-pramlintide] ({C20 diacid-γGlu}-EERCNTATCATQRLAEFLRHSSQNFGPILPPTNVGSQTP-NH2; disulfide 4-9 (inferred)) | 1.19 nM | 1.13 nM |  |  |  |  |  |  |  |  |  |  |  |  |  |  |  |  | solubility at 18 h ([2]; bistrispropane buffer, pH 6, pH 6.0, read-out: Solubility pH 6.0): > 200 µM; solubility at 18 h ([2]; bistrispropane buffer, pH 6.5, pH 6.5, read-out: Solubility pH 6.5): > 200 µM; solubility at 18 h ([2]; bistrispropane buffer, pH 7, pH 7.0, 18 hours at room temperature, Table 3, read-out: Solubility pH 7.0): > 200 µM; solubility at 18 h ([2]; bistrispropane buffer, pH 7, pH 7.0, read-out: Solubility pH 7.0): > 200 µM; solubility at 18 h ([2]; bistrispropane buffer, pH 7.5, pH 7.5, read-out: Solubility pH 7.5): > 200 µM; solubility at 18 h ([2]; bistrispropane buffer, pH 8, pH 8.0, read-out: Solubility pH 8.0): > 200 µM; solubility at 18 h ([2]; glycylglycine buffer, pH 3, pH 3.0, read-out: Solubility pH 3.0): > 200 µM; solubility at 18 h ([2]; glycylglycine buffer, pH 4, pH 4.0, 18 hours at room temperature, Table 2, read-out: Solubility pH 4.0): > 200 µM; solubility at 18 h ([2]; glycylglycine buffer, pH 4, pH 4.0, read-out: Solubility pH 4.0): > 200 µM; solubility at 18 h ([2]; glycylglycine buffer, pH 5, pH 5.0, read-out: Solubility pH 5.0): > 200 µM
CC[C@H](C)[C@H](NC(=O)[C@@H]1CCCN1C(=O)CNC(=O)[C@H](Cc1ccccc1)NC(=O)[C@H](CC(N)=O)NC(=O)[C@H](CCC(=O)O)NC(=O)[C@H](CO)NC(=O)[C@H](CO)NC(=O)[C@H](Cc1c[nH]cn1)NC(=O)[C@H](Cc1c[nH]cn1)NC(=O)[C@H](CC(C)C)NC(=O)[C@H](Cc1ccccc1)NC(=O)[C@H](CCC(=O)O)NC(=O)[C@H](C)NC(=O)[C@H](CC(C)C)NC(=O)[C@H](CCCNC(=N)N)NC(=O)[C@H](CCC(N)=O)NC(=O)[C@@H](NC(=O)[C@H](C)NC(=O)[C@@H]1CSSC[C@H](NC(=O)[C@H](CCCCN)NC(=O)COCCOCCNC(=O)COCCOCCNC(=O)CC[C@H](NC(=O)CCCCCCCCCCCCCCCCCCC(=O)O)C(=O)O)C(=O)N[C@@H](CC(N)=O)C(=O)N[C@@H]([C@@H](C)O)C(=O)N[C@@H](C)C(=O)N[C@@H]([C@@H](C)O)C(=O)N1)[C@@H](C)O)C(=O)N[C@@H](CC(C)C)C(=O)N1CCC[C@H]1C(=O)N1CCC[C@H]1C(=O)N[C@H](C(=O)N[C@@H](CC(N)=O)C(=O)N[C@H](C(=O)NCC(=O)N[C@@H](CO)C(=O)N[C@@H](CC(N)=O)C(=O)N[C@H](C(=O)N1CCC[C@H]1C(N)=O)[C@@H](C)O)C(C)C)[C@@H](C)O [Example 167] ({C20 diacid-γGlu-AEEA-AEEA}-KCNTATCATQRLAEFLHHSSENFGPILPPTNVGSNTP-NH2; disulfide 2-7) | 0.113 nM | 0.203 nM | 0.113 nM | > 200 µM | > 200 µM | > 200 µM | > 200 µM | > 200 µM | > 200 µM | > 200 µM | > 200 µM | > 200 µM | > 200 µM | 0.203 nM | 0.203 nM | 0.203 nM | 0.203 nM | 0.203 nM | 
CC[C@H](C)[C@H](NC(=O)[C@@H]1CCCN1C(=O)CNC(=O)[C@H](Cc1ccccc1)NC(=O)[C@H](CC(N)=O)NC(=O)[C@H](CCCCN)NC(=O)[C@H](CO)NC(=O)[C@H](CO)NC(=O)[C@H](Cc1c[nH]cn1)NC(=O)[C@H](Cc1c[nH]cn1)NC(=O)[C@H](CC(C)C)NC(=O)[C@H](Cc1ccccc1)NC(=O)[C@H](CCC(=O)O)NC(=O)[C@H](C)NC(=O)[C@H](CC(C)C)NC(=O)[C@H](CCCNC(=N)N)NC(=O)[C@H](CCC(N)=O)NC(=O)[C@@H](NC(=O)[C@H](C)NC(=O)[C@@H]1CSSC[C@H](NC(=O)[C@H](CCCCN)NC(=O)COCCOCCNC(=O)COCCOCCNC(=O)CC[C@H](NC(=O)CCCCCCCCCCCCCCCCCCC(=O)O)C(=O)O)C(=O)N[C@@H](CC(N)=O)C(=O)N[C@@H]([C@@H](C)O)C(=O)N[C@@H](C)C(=O)N[C@@H]([C@@H](C)O)C(=O)N1)[C@@H](C)O)C(=O)N[C@@H](CC(C)C)C(=O)N1CCC[C@H]1C(=O)N1CCC[C@H]1C(=O)N[C@H](C(=O)N[C@@H](CC(N)=O)C(=O)N[C@H](C(=O)NCC(=O)N[C@@H](CO)C(=O)N[C@@H](CC(N)=O)C(=O)N[C@H](C(=O)N1CCC[C@H]1C(N)=O)[C@@H](C)O)C(C)C)[C@@H](C)O [Example 168, N-alpha-[2-(2-{2-[2-(2-{2-[(S)-4-Carboxy-4-(19-carboxyheptadecanoylamino)butyrylamino]ethoxy}ethoxy)acetylamino]ethoxy}ethoxy)acetyl]-[Glu14,His17,Lys21,Pro37]-pramlintide] ({C20 diacid-γGlu-AEEA-AEEA}-KCNTATCATQRLAEFLHHSSKNFGPILPPTNVGSNTP-NH2; disulfide 2-7) | 0.085 nM | 0.071 nM | 0.085 nM | > 200 µM | > 200 µM | > 200 µM | > 200 µM | > 200 µM | > 200 µM | > 200 µM | > 200 µM | > 200 µM | > 200 µM | 0.071 nM | 0.071 nM | 0.071 nM | 0.071 nM | 0.071 nM | 
